These results are taken from ChEMBL document CHEMBL1127083 (J Med Chem, 1993).

One test concerns the target Leukotriene B4 receptor (Homo sapiens, UniProt Q9NPC1+Q15722). Nature of the test: Inhibition of LTB4-induced up-regulation of human neutrophil CD11b/CD18 integrin. Type of test: functional.
In test [1] the target is Leukotriene B4 receptor 1 (Homo sapiens, UniProt Q15722). The test can be described thus: Tested for inhibition of specific binding of [3H]LTB4 to human neutrophil expressing LTB4 receptor.
Leukotriene B4 receptor 1, sequence (Q15722 whole entry): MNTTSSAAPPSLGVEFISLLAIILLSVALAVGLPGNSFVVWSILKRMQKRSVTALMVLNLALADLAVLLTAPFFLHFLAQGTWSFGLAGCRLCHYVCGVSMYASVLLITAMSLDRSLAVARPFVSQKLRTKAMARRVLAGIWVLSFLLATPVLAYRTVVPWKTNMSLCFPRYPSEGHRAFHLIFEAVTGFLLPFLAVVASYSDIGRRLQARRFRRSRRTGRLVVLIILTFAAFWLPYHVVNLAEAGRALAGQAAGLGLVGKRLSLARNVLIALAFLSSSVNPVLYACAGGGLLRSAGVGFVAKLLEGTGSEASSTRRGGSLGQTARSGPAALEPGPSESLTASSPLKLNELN

`CCc1cc(-c2ccccc2)c(O)cc1OCCCOc1ccc2c(=O)c3ccccc3oc2c1CCC(=O)O` returned an IC50 at Leukotriene B4 receptor of 5.4 nM. Also, in test [1], the inhibition constant Ki stood at 22 nM.

As for `CCc1cc(-c2ccc(F)cc2)c(O)cc1OCCCOc1ccc2c(=O)c3ccccc3oc2c1CCC(=O)O`, the half-inhibitory concentration (IC50) against Leukotriene B4 receptor was 1.8 nM. The compound further showed a Ki in test [1] of 36 nM.

Compound `CCc1cc(-c2ccc(F)cc2)c(O)cc1OCCCOc1ccc2c(=O)c3cc(C(=O)O)ccc3oc2c1CCC(=O)O` returned an IC50 against Leukotriene B4 receptor of 1.2 nM. The affinity in test [1], expressed as Ki, was 0.47 nM.

Take `CCc1cc(-c2ccccc2)c(O)cc1OCCCOc1ccc2c(=O)c3cc(C(=O)O)ccc3oc2c1CCC(=O)O`: the IC50 on Leukotriene B4 receptor was 3.4 nM. Moreover, the inhibitory constant (Ki) in test [1] came to 0.57 nM.

As a reminder, the IC50 is the concentration that inhibits the measured activity by half. High values mean weaker potency, low ones greater potency. Usually Ki stands for the equilibrium dissociation constant of an inhibitor or competing ligand from its target. Low readings indicate higher affinity, high ones lower affinity.
